Among the data in patent US7125891B2, “Tripeptidyl peptidase inhibitors” (Janssen Pharmaceutica N.V., priority 2000, dated 2006) are melting point values, retold here.

Molecules are shown by their SMILES. Counter-ions that a name gives are not always drawn.

The term melting point denotes the temperature, or range, at which the solid turns liquid.

`CCc1cnc(C2Cc3ccccc3N2C(=O)c2ccccc2C(=O)O)[nH]1` (stereo not shown) (as salt: trifluoroacetate) displayed a melting point of 98 to 103 °C.
As for `CCCc1nc(C2Cc3ccccc3N2C(C)=O)no1` (stereo not shown), the melting point is 93 to 94 °C.
With `CCc1cnc(C2Cc3ccccc3N2C(=O)Nc2ccccc2[N+](=O)[O-])[nH]1` (stereo not shown) the figure was 208 to 209 °C; with `CCCc1nc(C2Cc3ccccc3N2C(=O)CN)no1` (stereo not drawn) (as salt: trifluoroacetate) [Compound 90, 2,3-dihydro-β-oxo-2-(5-propyl-1,2,4-oxadiazol-3-yl)-1H-indole-1-ethanamine trifluoroacetate (1:1)], 160 to 162 °C; with `CCCc1cnc(C2Cc3ccccc3N2C(=O)C(C)N(C)C(=O)OC(C)C)[nH]1` (stereo not shown), 77 to 80 °C.
The value for `CCc1cnc(C2Cc3ccccc3N2C(=O)Nc2ccccc2N)[nH]1` (stereo not shown) (as salt: trifluoroacetate) was 106 to 108 °C.
The value for `CCCc1cnc(C2Cc3ccccc3N2C(C)=O)[nH]1` (stereo not shown) was 174 to 175 °C; that for `CCCc1cnc(C2Cc3ccccc3N2C(=O)C(N)CC)[nH]1` (stereo not drawn) (as salt: HCl) (hydrate or solvate) [Compound 15, [2S-[1(R*),2R*]]-α-ethyl-2,3-dihydro-β-oxo-2-(4-propyl-1H-imidazol-2-yl)-1H-indole-1-ethanamine dihydrochloride dihydrate] was 132 to 140 °C; that for `NCC(=O)N1c2ccccc2CC1c1nc2cc(C(=O)O)ccc2[nH]1` (stereo not shown) (as salt: trifluoroacetate) (hydrate or solvate) [Compound 62, 2-[1-(aminoacetyl)-2,3-dihydro-1H-indol-2-yl]-1H-benzimidazole-5-carboxylic acid monohydrate trifluoroacetate (1:2)] was 208 to 211 °C.
Take `CCc1cn(C)c(C2Cc3ccccc3N2C(C)=O)n1` (stereo not shown): the melting point was 105 to 106 °C.
